Results on 13 compounds are retold here after ChEMBL document CHEMBL5465560, “Selectivity Literature for EUbOPEN Chemogenomic Library” (2024).

Assay [1] deals with NT-3 growth factor receptor (Homo sapiens, UniProt Q16288). The assay can be described thus: Selectivity interaction (Kinase panel (Z-LYTE Assay)) EUB0001632a NTRK3. The conditions noted are these: at 10 µM.
In assay [2] the target is SRSF protein kinase 1 (Homo sapiens, UniProt Q96SB4). Kind of assay: Selectivity interaction (Ambit KINOMEscan and KiNATiv profiling in Jurkat cells) EUB0000090b SRPK1. It counts as cell-based. The conditions noted are these: at 1 µM.
Sequence of SRSF protein kinase 1 (Q96SB4 whole entry): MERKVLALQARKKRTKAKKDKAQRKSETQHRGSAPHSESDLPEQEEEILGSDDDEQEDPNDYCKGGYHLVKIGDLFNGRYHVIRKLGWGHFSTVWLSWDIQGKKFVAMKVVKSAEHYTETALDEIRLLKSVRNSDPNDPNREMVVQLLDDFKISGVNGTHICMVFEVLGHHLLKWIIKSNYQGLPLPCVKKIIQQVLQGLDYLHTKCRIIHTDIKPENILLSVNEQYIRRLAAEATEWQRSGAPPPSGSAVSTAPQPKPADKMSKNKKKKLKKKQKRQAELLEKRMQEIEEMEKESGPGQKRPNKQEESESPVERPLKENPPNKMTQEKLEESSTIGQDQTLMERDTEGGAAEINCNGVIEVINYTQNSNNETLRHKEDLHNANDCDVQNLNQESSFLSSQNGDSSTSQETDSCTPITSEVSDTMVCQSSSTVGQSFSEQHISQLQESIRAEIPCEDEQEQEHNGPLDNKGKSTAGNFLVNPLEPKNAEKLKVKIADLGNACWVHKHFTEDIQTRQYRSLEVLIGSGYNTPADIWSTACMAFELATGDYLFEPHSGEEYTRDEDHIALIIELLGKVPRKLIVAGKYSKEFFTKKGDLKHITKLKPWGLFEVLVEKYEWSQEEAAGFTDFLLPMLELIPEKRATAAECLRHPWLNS
Assay [3] deals with Myosin light chain kinase, smooth muscle (Homo sapiens, UniProt Q15746). Kind of assay: Selectivity interaction (Ambit KINOMEscan and KiNATiv profiling in Jurkat cells) EUB0000090b MYLK. In kind it is cell-based. The conditions noted are these: at 1 µM.
The target of assay [4] is Serine/threonine-protein kinase 10 (Homo sapiens) (UniProt O94804). The assay can be described thus: Selectivity interaction (KinomeScan (DiscoverX)) EUB0000607a STK10. The conditions noted are these: at 10 µM.
The target of assay [5] is T1, Serine/threonine-protein kinase Nek9 (Homo sapiens) (UniProt Q8TD19).
T1 sequence (whole entry): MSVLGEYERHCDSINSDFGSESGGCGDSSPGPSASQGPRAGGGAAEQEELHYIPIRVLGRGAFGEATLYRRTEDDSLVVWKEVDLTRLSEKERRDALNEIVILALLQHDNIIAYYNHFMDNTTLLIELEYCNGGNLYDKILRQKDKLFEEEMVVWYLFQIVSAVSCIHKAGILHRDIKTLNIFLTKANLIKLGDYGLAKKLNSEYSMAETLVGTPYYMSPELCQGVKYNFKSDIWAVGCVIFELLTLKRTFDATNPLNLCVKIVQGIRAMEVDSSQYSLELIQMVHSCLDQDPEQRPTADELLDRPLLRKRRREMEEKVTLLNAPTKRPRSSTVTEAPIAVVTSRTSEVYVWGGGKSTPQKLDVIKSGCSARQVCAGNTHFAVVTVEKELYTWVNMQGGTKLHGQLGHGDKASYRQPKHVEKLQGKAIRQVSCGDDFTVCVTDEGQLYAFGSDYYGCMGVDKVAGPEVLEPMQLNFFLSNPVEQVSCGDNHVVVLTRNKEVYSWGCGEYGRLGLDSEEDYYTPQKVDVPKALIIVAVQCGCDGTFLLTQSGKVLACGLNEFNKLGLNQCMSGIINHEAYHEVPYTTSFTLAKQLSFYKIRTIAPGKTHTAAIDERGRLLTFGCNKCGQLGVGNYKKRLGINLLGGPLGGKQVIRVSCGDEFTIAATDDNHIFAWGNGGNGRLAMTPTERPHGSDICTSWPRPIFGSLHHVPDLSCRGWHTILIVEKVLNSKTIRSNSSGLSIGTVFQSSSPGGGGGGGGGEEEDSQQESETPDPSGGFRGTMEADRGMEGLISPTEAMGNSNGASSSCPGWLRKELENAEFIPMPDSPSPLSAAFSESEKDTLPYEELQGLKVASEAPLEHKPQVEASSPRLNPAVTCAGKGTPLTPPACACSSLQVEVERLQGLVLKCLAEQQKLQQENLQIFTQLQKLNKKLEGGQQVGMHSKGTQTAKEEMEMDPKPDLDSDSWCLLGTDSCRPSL
Kind of assay: Selectivity interaction (SelectScreen profiling (Invitrogen)) EUB0000607a NEK9. The conditions noted are these: at 2 µM.

Assay [6] concerns the target T2, Rhodopsin kinase GRK7 (Homo sapiens) (UniProt Q8WTQ7).
T2 sequence (whole entry): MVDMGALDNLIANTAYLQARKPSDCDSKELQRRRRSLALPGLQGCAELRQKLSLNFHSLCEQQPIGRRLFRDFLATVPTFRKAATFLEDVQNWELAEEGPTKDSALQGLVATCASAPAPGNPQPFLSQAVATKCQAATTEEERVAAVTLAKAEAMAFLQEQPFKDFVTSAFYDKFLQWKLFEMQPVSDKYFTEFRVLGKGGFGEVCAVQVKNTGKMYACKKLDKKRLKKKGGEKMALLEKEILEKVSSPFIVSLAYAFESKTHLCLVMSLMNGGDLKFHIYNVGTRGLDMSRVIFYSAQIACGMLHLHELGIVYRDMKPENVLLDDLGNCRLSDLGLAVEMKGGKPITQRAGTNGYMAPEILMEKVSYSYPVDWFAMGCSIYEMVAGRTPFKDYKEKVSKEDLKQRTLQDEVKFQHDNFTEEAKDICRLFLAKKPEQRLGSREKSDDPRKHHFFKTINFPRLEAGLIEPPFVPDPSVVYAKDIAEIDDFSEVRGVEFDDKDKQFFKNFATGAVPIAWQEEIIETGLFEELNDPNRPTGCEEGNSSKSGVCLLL
Kind of assay: Selectivity interaction (KinomeScan (DiscoverX)) EUB0000666a GRK7. The conditions noted are these: at 10 µM.

For assay [7], the system named is Fibroblast growth factor receptor 3 (Homo sapiens), P22607 [G697C]. Kind of assay: (§1) Selectivity interaction (KinomeScan (DiscoverX)) EUB0000229b FGFR3. The conditions noted are these: at 1 µM.
Assay [8] deals with Fibroblast growth factor receptor 3 (Homo sapiens, UniProt P22607). The assay is described as §1. The conditions noted are these: at 10 µM.
Assay [9] addresses T3, Ribosomal protein S6 kinase alpha-1 (Homo sapiens, UniProt Q15418). The assay can be described thus: Selectivity interaction (KinomeScan (DiscoverX)) EUB0000655a RPS6KA1. The conditions noted are these: at 10 µM.
Assay [10] concerns the target 5-hydroxytryptamine receptor 2A (Homo sapiens, UniProt P28223). Kind of assay: Selectivity interaction (Panel of kinases, GPCRs, ion channels and transporters (enzymatic assay)) EUB0000266bCl HTR2A.
Assay [11] deals with Casein kinase I isoform delta (Homo sapiens, UniProt P48730). The assay can be described thus: Selectivity interaction (KinomeScan (DiscoverX)) EUB0001619a CSNK1D. The conditions noted are these: at 1 µM.
Sequence of Casein kinase I isoform delta (P48730 whole entry, looked up, canonical isoform): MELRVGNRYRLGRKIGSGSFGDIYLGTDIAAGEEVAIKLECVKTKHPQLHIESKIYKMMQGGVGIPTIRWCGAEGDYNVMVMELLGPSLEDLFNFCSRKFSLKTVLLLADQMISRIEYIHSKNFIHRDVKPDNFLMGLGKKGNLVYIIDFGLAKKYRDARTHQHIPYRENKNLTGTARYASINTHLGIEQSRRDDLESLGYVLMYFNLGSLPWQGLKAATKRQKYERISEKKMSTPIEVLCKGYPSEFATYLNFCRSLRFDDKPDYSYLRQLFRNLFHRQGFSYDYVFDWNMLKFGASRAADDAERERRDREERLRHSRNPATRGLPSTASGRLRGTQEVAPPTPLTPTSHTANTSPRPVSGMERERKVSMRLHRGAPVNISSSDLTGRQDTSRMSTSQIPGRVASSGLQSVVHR
Assay [12] deals with Mitogen-activated protein kinase kinase kinase kinase 5 (Homo sapiens) (UniProt Q9Y4K4). Kind of assay: Selectivity interaction (ActivX KiNativ screen (kinase selectivity in THP-1 cell lysates)) EUB0000639a MAP4K5. In kind it is subcellular. The conditions noted are these: lysate.
Sequence of Mitogen-activated protein kinase kinase kinase kinase 5 (Homo sapiens) (Q9Y4K4 whole entry, looked up): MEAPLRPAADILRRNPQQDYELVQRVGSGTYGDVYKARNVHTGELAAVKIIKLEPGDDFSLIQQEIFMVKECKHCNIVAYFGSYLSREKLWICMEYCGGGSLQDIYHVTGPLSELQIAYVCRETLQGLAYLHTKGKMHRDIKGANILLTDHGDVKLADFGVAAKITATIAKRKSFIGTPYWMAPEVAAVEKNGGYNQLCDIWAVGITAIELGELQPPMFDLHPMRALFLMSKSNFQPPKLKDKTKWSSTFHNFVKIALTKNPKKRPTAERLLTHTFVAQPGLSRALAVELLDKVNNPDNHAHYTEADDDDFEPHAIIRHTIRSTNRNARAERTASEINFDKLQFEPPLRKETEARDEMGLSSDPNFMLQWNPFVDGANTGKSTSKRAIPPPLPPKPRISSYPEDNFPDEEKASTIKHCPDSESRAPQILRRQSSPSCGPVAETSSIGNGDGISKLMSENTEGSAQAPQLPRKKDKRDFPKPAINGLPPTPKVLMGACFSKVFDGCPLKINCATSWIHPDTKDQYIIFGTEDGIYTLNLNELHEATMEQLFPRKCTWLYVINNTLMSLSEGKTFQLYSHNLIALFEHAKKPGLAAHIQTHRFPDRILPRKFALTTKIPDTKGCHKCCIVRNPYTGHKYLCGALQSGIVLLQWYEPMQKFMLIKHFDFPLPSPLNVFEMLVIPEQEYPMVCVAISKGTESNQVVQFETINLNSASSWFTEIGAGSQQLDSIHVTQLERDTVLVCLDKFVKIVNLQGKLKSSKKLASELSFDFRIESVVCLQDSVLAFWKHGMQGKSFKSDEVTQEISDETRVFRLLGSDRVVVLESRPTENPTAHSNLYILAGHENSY
The target in assay [13] is Vascular endothelial growth factor receptor 3 (Homo sapiens, UniProt P35916).
Assay [14] has as its target Androgen receptor (Homo sapiens) (UniProt P10275). The assay can be described thus: Selectivity interaction (Eurofins CEREP Diversity Profile (receptors and ion channels)) EUB0000279b AR. The conditions noted are these: at 10 µM.
Assay [15] has as its target T3, Ribosomal protein S6 kinase alpha-1. Kind of assay: Selectivity interaction (KinomeScan (DiscoverX)) EUB0000618a RPS6KA1. The conditions noted are these: at 10 µM.
Assay [16] addresses T4, RNA 5'-monophosphate methyltransferase (Homo sapiens) (UniProt Q7Z5W3).
T4 sequence (whole entry): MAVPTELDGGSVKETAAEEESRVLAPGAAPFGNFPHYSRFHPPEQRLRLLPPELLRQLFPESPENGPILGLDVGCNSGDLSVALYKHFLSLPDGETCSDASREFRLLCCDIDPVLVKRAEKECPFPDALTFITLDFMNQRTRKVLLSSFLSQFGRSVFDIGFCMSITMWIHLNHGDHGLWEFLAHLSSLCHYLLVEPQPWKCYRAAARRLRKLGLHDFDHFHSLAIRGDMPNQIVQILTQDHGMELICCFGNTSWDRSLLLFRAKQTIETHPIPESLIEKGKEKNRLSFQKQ
The assay can be described thus: Selectivity interaction (Methyltransferase screen (radiometric assays, panel of 8 PRMTs, 21 protein lysine methyltransferases, 3 DNA methyltransferases, and one RNA methyltransferase)) EUB0000272b BCDIN3D.

Where only a bound is given, the exact number is not on record here.

T3 sequence (Q15418 whole entry): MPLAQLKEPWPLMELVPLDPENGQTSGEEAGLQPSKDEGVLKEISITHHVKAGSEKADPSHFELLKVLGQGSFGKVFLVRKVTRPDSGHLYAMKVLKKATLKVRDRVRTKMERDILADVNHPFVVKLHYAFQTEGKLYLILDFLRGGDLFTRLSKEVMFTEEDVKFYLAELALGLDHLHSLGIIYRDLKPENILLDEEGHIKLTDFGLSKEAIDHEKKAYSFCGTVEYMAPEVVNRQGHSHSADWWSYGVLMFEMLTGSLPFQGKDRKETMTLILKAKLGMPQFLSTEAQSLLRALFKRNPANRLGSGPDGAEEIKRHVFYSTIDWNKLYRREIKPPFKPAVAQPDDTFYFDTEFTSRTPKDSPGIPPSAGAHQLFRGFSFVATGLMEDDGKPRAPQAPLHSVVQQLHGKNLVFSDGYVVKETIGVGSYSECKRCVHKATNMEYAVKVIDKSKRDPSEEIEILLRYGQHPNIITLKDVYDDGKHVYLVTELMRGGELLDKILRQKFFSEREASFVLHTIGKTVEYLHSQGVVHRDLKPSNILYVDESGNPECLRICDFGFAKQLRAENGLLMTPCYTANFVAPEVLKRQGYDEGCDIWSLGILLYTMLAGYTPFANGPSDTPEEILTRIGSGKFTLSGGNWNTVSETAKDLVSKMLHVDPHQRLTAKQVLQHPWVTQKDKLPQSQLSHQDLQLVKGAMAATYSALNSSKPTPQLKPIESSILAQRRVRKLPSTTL
Sequence of 5-hydroxytryptamine receptor 2A (P28223 whole entry, canonical isoform): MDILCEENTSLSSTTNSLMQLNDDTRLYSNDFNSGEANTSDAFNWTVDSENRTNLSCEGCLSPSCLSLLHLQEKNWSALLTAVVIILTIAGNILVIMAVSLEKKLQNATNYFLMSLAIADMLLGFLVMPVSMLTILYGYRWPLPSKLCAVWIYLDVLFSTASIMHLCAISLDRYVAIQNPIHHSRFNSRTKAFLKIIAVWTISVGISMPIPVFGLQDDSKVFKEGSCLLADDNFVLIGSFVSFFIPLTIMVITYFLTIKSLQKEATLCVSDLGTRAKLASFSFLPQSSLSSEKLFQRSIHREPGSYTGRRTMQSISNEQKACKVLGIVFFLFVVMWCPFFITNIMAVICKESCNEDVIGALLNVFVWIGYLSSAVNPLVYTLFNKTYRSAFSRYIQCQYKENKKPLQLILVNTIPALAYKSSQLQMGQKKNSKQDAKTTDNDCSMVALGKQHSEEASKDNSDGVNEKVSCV
Sequence of Androgen receptor (Homo sapiens) (P10275 whole entry): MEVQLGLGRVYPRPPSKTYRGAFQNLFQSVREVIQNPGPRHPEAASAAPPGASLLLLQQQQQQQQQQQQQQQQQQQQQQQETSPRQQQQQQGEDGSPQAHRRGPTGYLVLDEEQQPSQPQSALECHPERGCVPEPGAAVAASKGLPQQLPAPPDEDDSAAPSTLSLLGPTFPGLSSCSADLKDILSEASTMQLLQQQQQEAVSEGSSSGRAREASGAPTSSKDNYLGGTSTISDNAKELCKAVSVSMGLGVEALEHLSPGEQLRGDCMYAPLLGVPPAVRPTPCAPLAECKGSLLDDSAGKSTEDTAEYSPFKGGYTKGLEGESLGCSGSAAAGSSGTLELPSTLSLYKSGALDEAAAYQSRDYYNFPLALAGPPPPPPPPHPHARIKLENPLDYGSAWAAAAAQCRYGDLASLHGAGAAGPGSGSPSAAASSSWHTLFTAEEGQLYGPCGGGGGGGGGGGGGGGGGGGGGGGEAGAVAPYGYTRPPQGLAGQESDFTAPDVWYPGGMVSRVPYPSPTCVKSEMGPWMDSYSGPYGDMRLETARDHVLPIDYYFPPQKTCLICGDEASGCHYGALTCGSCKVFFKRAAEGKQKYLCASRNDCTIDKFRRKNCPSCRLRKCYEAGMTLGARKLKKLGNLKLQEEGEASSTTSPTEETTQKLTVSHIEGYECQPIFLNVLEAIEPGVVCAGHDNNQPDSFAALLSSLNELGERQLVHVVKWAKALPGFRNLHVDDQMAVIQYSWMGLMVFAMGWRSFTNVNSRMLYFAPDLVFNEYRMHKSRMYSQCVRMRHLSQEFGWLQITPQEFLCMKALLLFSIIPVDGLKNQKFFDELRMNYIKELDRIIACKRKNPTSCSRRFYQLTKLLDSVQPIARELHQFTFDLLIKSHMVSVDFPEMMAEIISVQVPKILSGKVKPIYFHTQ
Sequence of NT-3 growth factor receptor (Q16288 32-839 limits assumed): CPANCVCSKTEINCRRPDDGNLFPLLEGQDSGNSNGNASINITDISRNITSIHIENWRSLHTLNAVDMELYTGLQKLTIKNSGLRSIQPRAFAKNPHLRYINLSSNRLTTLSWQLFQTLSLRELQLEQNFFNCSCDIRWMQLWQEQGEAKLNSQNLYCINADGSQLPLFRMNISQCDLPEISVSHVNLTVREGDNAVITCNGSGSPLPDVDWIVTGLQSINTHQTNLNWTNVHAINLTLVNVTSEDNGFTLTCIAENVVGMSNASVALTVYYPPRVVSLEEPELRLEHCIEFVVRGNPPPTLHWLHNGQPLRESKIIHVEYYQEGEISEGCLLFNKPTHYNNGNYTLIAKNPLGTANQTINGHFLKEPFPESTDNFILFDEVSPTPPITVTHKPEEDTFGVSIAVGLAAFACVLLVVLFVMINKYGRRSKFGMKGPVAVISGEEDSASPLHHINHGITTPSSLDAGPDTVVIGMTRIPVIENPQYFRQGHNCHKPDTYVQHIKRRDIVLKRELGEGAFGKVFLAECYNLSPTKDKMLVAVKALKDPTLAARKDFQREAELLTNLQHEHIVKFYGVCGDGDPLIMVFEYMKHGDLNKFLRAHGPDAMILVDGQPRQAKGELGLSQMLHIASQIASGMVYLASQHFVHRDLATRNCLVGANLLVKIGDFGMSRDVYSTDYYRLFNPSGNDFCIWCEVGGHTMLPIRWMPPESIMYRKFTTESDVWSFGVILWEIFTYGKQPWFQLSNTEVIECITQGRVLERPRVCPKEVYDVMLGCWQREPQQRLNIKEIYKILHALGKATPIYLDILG

In the case of `Cn1cc(-n2cnc3c(NCc4nc5cc(Cl)c(Cl)cc5[nH]4)nc(N4CCOCC4)nc32)cn1`, the % of control in [1] was found to be 19%.
For `CN(C)C/C=C/C(=O)Nc1ccc(C(=O)N2CCCC(Nc3ncc(Cl)c(-c4c[nH]c5ccccc45)n3)C2)cc1` (stereo unspecified), the % of control in [2] came to 52%; in assay [3] it was 100%.
For the compound `CNC(=O)Nc1ccc(-c2nc(N3CC4CCC(C3)O4)c3cnn(C4CCC5(CC4)OCCO5)c3n2)cc1`, the % of control in [4] was determined as 99%. For the same compound, the % of inhibition in assay [5] is -2%.
In [6], `O=C(NOC[C@H](O)CO)c1ccc(F)c(F)c1Nc1ccc(I)cc1F` yielded a % of control of 100%.
For `COc1cc(N(C)c2ccnc3ccc(C(F)(F)F)cc23)cc(OC)c1OC`, the % binding in [7] is 90%; in assay [8], 100%.
For `CN(C)CCOc1ccc(-c2nc(-c3ccncc3)c(-c3ccc4c(c3)CC/C4=N\O)[nH]2)cc1`, the % of control in assay [9] is 81%.
`CCn1c(-c2nc3cc(C(=O)N4CCCC(N)C4)ccc3n2C)cc2ccccc21` (stereo unspecified): the pXC50 in [10] is 5.3 M.
`N#Cc1cccc(-c2c[nH]c3ncnc(N4CCOCC4)c23)c1` returned a % of control in assay [11] of 100%.
In the case of `CC[C@@H]1[C@H](F)C(=O)N[C@@H]1COc1nccc2cc(C(N)=O)c(OC)cc12` [ZIMLOVISERTIB], the % of inhibition in [12] (at 0.01 µM) was -0.9%; in assay [12] (at 0.04 µM), 0%; in assay [12] (at 0.2 µM) it was 3.2%; in assay [12] (at 1 µM) it was 9.9%; in assay [12] (at 5 µM), 11.8%.
One may read the IC50 as the concentration needed to halve the response being measured. Consider `CCc1cccc(CC)c1NC(=O)c1nn(C)c2c1CCc1cnc(Nc3ccc(C(=O)NC4CCN(C)CC4)cc3OC(F)(F)F)nc1-2`, for which, in [13], the IC50 is greater than 10 µM.
`CC(=O)c1cc(-c2ccccc2OCC2CC2)c2ncccn12` gave a % of control in assay [14] of 105%.
As to `O[C@H]1CC[C@H](Nc2ncc3nc(Nc4c(F)cc(F)cc4F)n([C@H]4CCOC4)c3n2)CC1`, in assay [15], the % of control came to 98%.
`Cc1cc(C)cc([C@H]2c3cc(C)ccc3NC(=O)CN2C(=O)c2ccc(Br)s2)c1`: the % of activity in assay [16] (at 1 µM) is 96%; in assay [16] (at 10 µM), 99.3%.
